pIC50: −log10 of the molar value. Counter-ions that a name gives are not always drawn.
Biological target: kinase domain of IRE1 alpha (His-tagged kinase dead construct KR, AA G547-L977, D688N) (Homo sapiens (Human), UniProt O75460, D688N)
Experiment: IRE1α TR-FRET competition binding assay
Settings: competition with Kinase Tracer 236, 0.1 μM; one hour at room temperature
Description: To determine the affinity of compound binding to the kinase domain of IRE1 alpha, a Time Resolved Fluorescence Resonance Energy Transfer (TR-FRET) competition assay was used. A His-tagged IRE1 alpha kinase dead construct containing the kinase and RNase domains (KR, AA G547-L977, D688N) was expressed in Sf9 insect cells. The purified protein (final concentration 0.006 μM micromolar) was pre-incubated with anti-His Europium labeled antibody (Life Technologies PV5596, final concentration 0.002 μM micromolar) for one hour at 4° C. in 1X TR-FRET Assay Buffer (50 mM HEPES, pH 7.5.10 mM MgCl2, 0.083 mM Brij 35, 1 mM DTT, and 0.1% bovine gamma globulin) prior to addition to test compounds. A fluorescent labeled probe based on an ATP competitive inhibitor (Kinase Tracer 236, Life Technologies PV5592) is added to a final concentration of 0.1 μM (micromolar). Reactions were carried out for one hour at room temperature in a final volume of 20 μL (microliter) in 384 well white ProxiPlates (Perkin Elmer 6008289). Binding of the tracer to the IRE1 protein alpha was detected in an Envision instrument (PerkinElmer) equipped with a TRF laser option and a LANCE/Delfia Dual/Bias D400/D630 mirror (Ex 347 nm, 1st Em 665 nm, 2nd Em 615 nm).
Exemplary compounds in Table A1 were tested in the IRE1α binding assays.

Chain of kinase domain of IRE1 alpha (His-tagged kinase dead construct KR, AA G547-L977, D688N) (O75460 547-977 D688N): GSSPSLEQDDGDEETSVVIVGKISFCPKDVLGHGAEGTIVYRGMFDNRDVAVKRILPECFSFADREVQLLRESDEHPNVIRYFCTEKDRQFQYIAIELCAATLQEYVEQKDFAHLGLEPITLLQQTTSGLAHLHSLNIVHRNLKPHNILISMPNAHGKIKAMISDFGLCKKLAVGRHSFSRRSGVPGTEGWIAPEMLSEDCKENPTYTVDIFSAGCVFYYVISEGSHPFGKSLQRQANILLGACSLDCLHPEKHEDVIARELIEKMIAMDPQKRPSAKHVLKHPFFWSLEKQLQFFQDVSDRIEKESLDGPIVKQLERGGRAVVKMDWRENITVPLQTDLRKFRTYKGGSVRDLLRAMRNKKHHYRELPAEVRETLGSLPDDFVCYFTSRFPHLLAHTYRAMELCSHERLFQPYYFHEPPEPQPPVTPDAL

| SMILES | pIC50 |
| --- | --- |
| CN(C)C1CCC(Nc2nccc(-c3cccnc3Oc3cc(F)c(NS(=O)(=O)Cc4ccccc4)c(F)c3F)n2)CC1F (single isomer, unassigned) [Compound 308, N-(4-((3-(2-((4-(Dimethylamino)-3-fluorocyclohexyl)amino)pyrimidin-4-yl)pyridin-2-yl)oxy)-2,3,6-trifluorophenyl)-1-phenylmethanesulfonamide] | 7.08 |
| Cc1cc(NS(=O)(=O)C(C)c2ccccc2)c(F)c(F)c1Oc1ncccc1-c1ccnc(N[C@@H]2CNC[C@@H](F)C2)n1 (single isomer, unassigned) [Compound 313, hydrochloride] | 8.92 |
| Cc1cc(NS(=O)(=O)C(C)c2ccccc2)c(F)c(F)c1Oc1ncccc1-c1ccnc(N[C@@H]2CNC[C@@H](F)C2)n1 (single isomer, unassigned) [Compound 314] | 9.62 |
| COC1CNCC(Nc2nccc(-c3cccnc3Oc3cc(F)c(NS(=O)(=O)Cc4ccccc4)c(F)c3F)n2)C1 (single isomer, unassigned) [Compound 317, 1-Phenyl-N-(2,3,6-trifluoro-4-((3-(2-((5-methoxypiperidin-3-yl)amino)pyrimidin-4-yl)pyridin-2-yl)oxy)phenyl)methanesulfonamide] | 6.85 |
| COC1CNCC(Nc2nccc(-c3cccnc3Oc3cc(F)c(NS(=O)(=O)Cc4ccccc4)c(F)c3F)n2)C1 (single isomer, unassigned) [Compound 318, 1-Phenyl-N-(2,3,6-trifluoro-4-((3-(2-((5-methoxypiperidin-3-yl)amino)pyrimidin-4-yl)pyridin-2-yl)oxy)phenyl)methanesulfonamide] | 9.52 |
| COC1CNCC(Nc2nccc(-c3cccnc3Oc3cc(F)c(NS(=O)(=O)Cc4ccccc4)c(F)c3F)n2)C1 (single isomer, unassigned) [Compound 319, 1-Phenyl-N-(2,3,6-trifluoro-4-((3-(2-((5-methoxypiperidin-3-yl)amino)pyrimidin-4-yl)pyridin-2-yl)oxy)phenyl)methanesulfonamide] | 9.32 |
| O=S(=O)(Cc1ccccc1F)Nc1c(F)cc(Oc2ncccc2-c2ccnc(NC3CNCC(C4CC4)C3)n2)c(F)c1F (single isomer, unassigned) [Compound 324, N-(4-((3-(2-((5-Cyclopropylpiperidin-3-yl)amino)pyrimidin-4-yl)pyridin-2-yl)oxy)-2,3,6-trifluorophenyl)-1-(2-fluorophenyl)methanesulfonamide] | 9.40 |
| O=S(=O)(Cc1ccccc1F)Nc1c(F)cc(Oc2ncccc2-c2ccnc(NC3CNCC(C4CC4)C3)n2)c(F)c1F (single isomer, unassigned) [Compound 325, N-(4-((3-(2-((5-Cyclopropylpiperidin-3-yl)amino)pyrimidin-4-yl)pyridin-2-yl)oxy)-2,3,6-trifluorophenyl)-1-(2-fluorophenyl)methanesulfonamide] | 7.66 |
| O=S(=O)(Cc1ccccc1F)Nc1c(F)cc(Oc2ncccc2-c2ccnc(NC3CNCC(C4CC4)C3)n2)c(F)c1F (single isomer, unassigned) [Compound 326, N-(4-((3-(2-((5-Cyclopropylpiperidin-3-yl)amino)pyrimidin-4-yl)pyridin-2-yl)oxy)-2,3,6-trifluorophenyl)-1-(2-fluorophenyl)methanesulfonamide] | 9.21 |
| O=S(=O)(Cc1ccccc1F)Nc1c(F)cc(Oc2ncccc2-c2ccnc(NC3CNCC(C4CC4)C3)n2)c(F)c1F (single isomer, unassigned) [Compound 327, N-(4-((3-(2-((5-Cyclopropylpiperidin-3-yl)amino)pyrimidin-4-yl)pyridin-2-yl)oxy)-2,3,6-trifluorophenyl)-1-(2-fluorophenyl)methanesulfonamide] | 9.59 |
| COCC1CNCC(Nc2nccc(-c3cccnc3Oc3cc(F)c(NS(=O)(=O)Cc4ccccc4)c(F)c3F)n2)C1 (single isomer, unassigned) [Compound 328, 1-Phenyl-N-(2,3,6-trifluoro-4-((3-(2-((5-(methoxymethyl)piperidin-3-yl)amino)pyrimidin-4-yl)pyridin-2-yl)oxy)phenyl)methanesulfonamide] | 7.96 |
| COCC1CNCC(Nc2nccc(-c3cccnc3Oc3cc(F)c(NS(=O)(=O)Cc4ccccc4)c(F)c3F)n2)C1 (single isomer, unassigned) [Compound 329, 1-Phenyl-N-(2,3,6-trifluoro-4-((3-(2-((5-(methoxymethyl)piperidin-3-yl)amino)pyrimidin-4-yl)pyridin-2-yl)oxy)phenyl)methanesulfonamide] | 7.92 |
| COCC1CNCC(Nc2nccc(-c3cccnc3Oc3cc(F)c(NS(=O)(=O)Cc4ccccc4)c(F)c3F)n2)C1 (single isomer, unassigned) [Compound 330, 1-Phenyl-N-(2,3,6-trifluoro-4-((3-(2-((5-(methoxymethyl)piperidin-3-yl)amino)pyrimidin-4-yl)pyridin-2-yl)oxy)phenyl)methanesulfonamide] | 7.06 |
| COCC1CNCC(Nc2nccc(-c3cccnc3Oc3cc(F)c(NS(=O)(=O)Cc4ccccc4)c(F)c3F)n2)C1 (single isomer, unassigned) [Compound 331, 1-Phenyl-N-(2,3,6-trifluoro-4-((3-(2-((5-(methoxymethyl)piperidin-3-yl)amino)pyrimidin-4-yl)pyridin-2-yl)oxy)phenyl)methanesulfonamide] | 9.09 |
| CC(C)(F)C1CNCC(Nc2nccc(-c3cccnc3Oc3cc(F)c(NS(=O)(=O)Cc4ccccc4)c(F)c3F)n2)C1 (single isomer, unassigned) [Compound 334, 1-Phenyl-N-(2,3,6-trifluoro-4-((3-(2-((5-(2-fluoropropan-2-yl)piperidin-3-yl)amino)pyrimidin-4-yl)pyridin-2-yl)oxy)phenyl)methanesulfonamide hydrochloride] | 8.01 |

Results, then the compound that gave them:

| pIC50 | SMILES |
| --- | --- |
| 6.48 | CC(C)(F)C1CNCC(Nc2nccc(-c3cccnc3Oc3cc(F)c(NS(=O)(=O)Cc4ccccc4)c(F)c3F)n2)C1 (single isomer, unassigned) [Compound 335, 1-Phenyl-N-(2,3,6-trifluoro-4-((3-(2-((5-(2-fluoropropan-2-yl)piperidin-3-yl)amino)pyrimidin-4-yl)pyridin-2-yl)oxy)phenyl)methanesulfonamide hydrochloride] |
| 9.38 | CC(C)(F)C1CNCC(Nc2nccc(-c3cccnc3Oc3cc(F)c(NS(=O)(=O)Cc4ccccc4)c(F)c3F)n2)C1 (single isomer, unassigned) [Compound 336, 1-Phenyl-N-(2,3,6-trifluoro-4-((3-(2-((5-(2-fluoropropan-2-yl)piperidin-3-yl)amino)pyrimidin-4-yl)pyridin-2-yl)oxy)phenyl)methanesulfonamide hydrochloride] |
| 8.59 | CC(F)(F)C1CNCC(Nc2nccc(-c3cccnc3Oc3cc(F)c(NS(=O)(=O)Cc4ccccc4)c(F)c3F)n2)C1 (single isomer, unassigned) [Compound 338, N-(4-((3-(2-((5-(1, l-Difluoroethyl)piperidin-3-yl)amino)pyrimidin-4-yl)pyridin-2-yl)oxy)-2,3,6-trifluorophenyl)-1-phenylmethanesulfonamide] |
| 9.62 | CC(F)(F)C1CNCC(Nc2nccc(-c3cccnc3Oc3cc(F)c(NS(=O)(=O)Cc4ccccc4)c(F)c3F)n2)C1 (single isomer, unassigned) [Compound 339, N-(4-((3-(2-((5-(1, l-Difluoroethyl)piperidin-3-yl)amino)pyrimidin-4-yl)pyridin-2-yl)oxy)-2,3,6-trifluorophenyl)-1-phenylmethanesulfonamide] |
| 9.80 | CC(F)C1CNCC(Nc2nccc(-c3cccnc3Oc3cc(F)c(NS(=O)(=O)Cc4ccccc4)c(F)c3F)n2)C1 (single isomer, unassigned) [Compound 342, 1-Phenyl-N-(2,3,6-trifluoro-4-((3-(2-((5-(1-fluoroethyl)piperidin-3-yl)amino)pyrimidin-4-yl)pyridin-2-yl)oxy)phenyl)methanesulfonamide hydrochloride] |
| 9.11 | CC(F)C1CNCC(Nc2nccc(-c3cccnc3Oc3cc(F)c(NS(=O)(=O)Cc4ccccc4)c(F)c3F)n2)C1 (single isomer, unassigned) [Compound 343, 1-Phenyl-N-(2,3,6-trifluoro-4-((3-(2-((5-(1-fluoroethyl)piperidin-3-yl)amino)pyrimidin-4-yl)pyridin-2-yl)oxy)phenyl)methanesulfonamide hydrochloride] |
| 7.72 | CC(F)C1CNCC(Nc2nccc(-c3cccnc3Oc3cc(F)c(NS(=O)(=O)Cc4ccccc4)c(F)c3F)n2)C1 (single isomer, unassigned) [Compound 344, 1-Phenyl-N-(2,3,6-trifluoro-4-((3-(2-((5-(1-fluoroethyl)piperidin-3-yl)amino)pyrimidin-4-yl)pyridin-2-yl)oxy)phenyl)methanesulfonamide hydrochloride] |
| 9.77 | CC(F)C1CNCC(Nc2nccc(-c3cccnc3Oc3cc(F)c(NS(=O)(=O)Cc4ccccc4)c(F)c3F)n2)C1 (single isomer, unassigned) [Compound 345, 1-Phenyl-N-(2,3,6-trifluoro-4-((3-(2-((5-(1-fluoroethyl)piperidin-3-yl)amino)pyrimidin-4-yl)pyridin-2-yl)oxy)phenyl)methanesulfonamide hydrochloride] |
